How the values were obtained:
[1] = Stability in cryopreserved hepatocytes, dog; conditions: for Mono AUC (treprostinil formed) / AUC / CLint / Half-life: dog
[2] = molecular target: prostaglandin E2 (PGE2) receptor 2 (EP2) (Homo sapiens, UniProt P43116); assay: EP2 receptor cAMP agonist assay (HEK293T cells); assay type: cell-based; parameters: key to EC50 Fold Different from Treprostinil, EP2 Receptor: NC = too inactive to realistically calculate; conditions: for EP2 Relative to Tre: Table 22, relative to treprostinil EC50 values, * partial agonists or ambiguous dose-response curves; for Activity at the EP2 receptor compared to treprostinil: summary of findings
Chain of prostaglandin E2 (PGE2) receptor 2 (EP2) (P43116 whole entry): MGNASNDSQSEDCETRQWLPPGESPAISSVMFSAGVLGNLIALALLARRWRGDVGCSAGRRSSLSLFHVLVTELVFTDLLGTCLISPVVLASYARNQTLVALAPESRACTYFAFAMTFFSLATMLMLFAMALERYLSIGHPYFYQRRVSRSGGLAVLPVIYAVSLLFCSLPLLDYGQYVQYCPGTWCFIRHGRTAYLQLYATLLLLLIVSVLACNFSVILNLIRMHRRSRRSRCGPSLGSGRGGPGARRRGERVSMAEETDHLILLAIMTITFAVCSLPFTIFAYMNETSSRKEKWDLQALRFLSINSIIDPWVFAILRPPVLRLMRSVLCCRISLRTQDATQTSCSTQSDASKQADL
Description: (§1) Cyclic AMP assay kit: Multiscreen™ TR-FRET cAMP 1.0 No Wash Assay Kit (Multispan, Inc.)
(§2) Cells were thawed from frozen cells and resuspended in assay buffer at desired concentrations. cAMP or Calcium assays were performed according to the manufacturer's protocol using Multiscreen™ TR-FRET cAMP 1.0 No Wash Assay Kit or Multiscreen™ Calcium 1.0 No Wash Kit.
(§3) Gas Cyclic AMP (cAMP) Assay: In agonist mode testing, cells were seeded in a 384-well plate at an appropriate density and then were treated with compounds and incubated at 37° C. for 20 minutes. The reaction was terminated by […] trFluor™ Eu-labeled cAMP and trFluor™ 650-labeled anti-cAMP antibody in lysis buffer. […] All testing wells contained 0.1% DMSO in the final concentrations.
(§4) Data in graphs are represented in Mean±SD. Dose-dependent responses were fitted with sigmoidal dose-response curves allowing variable slopes using GraphPad Prism version 6 (Graphpad Prism).
(§5) These studies used cell lines overexpressing either human IP, EP2 or DP1, or EP1 receptors, and following incubation with varying concentrations of compounds, cAMP levels were measured using Fluorescence Resonance Energy Transfer (FRET).

[3] = Stability in cryopreserved hepatocytes, human; conditions: for Mono AUC (treprostinil formed) / AUC / CLint / Half-life: human; for CLint, calculated (in parentheses) / Half-life, calculated (in parentheses) / CLint / Half-life: hepatocytes
[4] = molecular target: T1, prostaglandin D2 (PGD2) receptor 1 (DP1) (Homo sapiens, UniProt Q13258); assay: DP1 receptor cAMP agonist assay (HEK293T cells); assay type: cell-based; conditions: for DP1 Relative to Tre: relative to treprostinil EC50 values, * partial agonists or ambiguous dose-response curves
T1 sequence (Q13258 1-359): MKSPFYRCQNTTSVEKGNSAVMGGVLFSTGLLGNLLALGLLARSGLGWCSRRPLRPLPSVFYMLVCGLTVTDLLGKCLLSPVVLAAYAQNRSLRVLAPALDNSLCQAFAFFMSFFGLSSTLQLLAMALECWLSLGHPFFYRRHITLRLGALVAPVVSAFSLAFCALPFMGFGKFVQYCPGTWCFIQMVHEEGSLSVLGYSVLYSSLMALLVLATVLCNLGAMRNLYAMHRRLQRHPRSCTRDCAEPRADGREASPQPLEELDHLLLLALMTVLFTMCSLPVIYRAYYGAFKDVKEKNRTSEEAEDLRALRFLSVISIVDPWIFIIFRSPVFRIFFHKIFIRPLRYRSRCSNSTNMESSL
Description: as §1, §2, §3, §4, §5

[5] = Stability in liver microsomes, rat; conditions: for AUC Mono (treprostinil formed) / CLint / Half-life: rat; for CLint, calculated (in parentheses) / Half-life, calculated (in parentheses) / CLint / Half-life: microsomes
[6] = Table 18, * partial agonists or odd dose-response curves

## CCCCCC(CCC1C(O)CC2Cc3c(cccc3OCC(=O)O)CC21)OC(=O)CC (centres unmarked) [Prodrug LV]
[1]
  Treprostinil Concentration 15 min: 0.781 µM
  Treprostinil Concentration 120 min: 0.53 µM
  Mono AUC (treprostinil formed): 71.2 µmol·min/L
[2]
  EP2 Relative to Tre: 50x
[3]
  Treprostinil Concentration 0 min: 0.113 µM
  Treprostinil Concentration 120 min: 0.527 µM
  Mono AUC (treprostinil formed): 68.8 µmol·min/L
[4]; Table 22
  DP1 Relative to Tre: 94x
[5]
  Treprostinil Concentration 0 min: 0.26 µM
  Treprostinil Concentration 15 min: 0.43 µM
  Treprostinil Concentration 30 min: 0.525 µM
  Treprostinil Concentration 60 min: 0.586 µM
  Treprostinil Concentration 120 min: 0.553 µM
  AUC Mono (treprostinil formed): 30.9 µmol·min/L

## CCCCCC(CCC1C(OC(=O)CC)CC2Cc3c(cccc3OCC(=O)O)CC21)OC(=O)CC (centres unmarked) [Prodrug LXX, treprostinil dipropionate]
[1]
  Trep Concentration (μM) 0 min: 0.0959 µM
  Trep Concentration (μM) 30 min: 0.597 µM
  Trep Concentration (μM) 60 min: 0.511 µM
  Trep Concentration (μM) 120 min: 0.445 µM
  Treprostinil Concentration 15 min: 0.736 µM
  Treprostinil Concentration 120 min: 0.445 µM
  AUC: 61.54 µmol·min/L
  Mono AUC (treprostinil formed): 61.5 µmol·min/L
[1]; hepatocytes
  CLint: >0.0308 mL/min/mg protein
  Half-life: <15 min
[2]; [6]
  EC50 Fold Different from Treprostinil, EP2 Receptor: NC
[2]
  Activity at the EP2 receptor compared to treprostinil: inactive
[3]
  Trep Concentration (μM) 0 min: 0.00542 µM
  Trep Concentration (μM) 15 min: 0.638 µM
  Trep Concentration (μM) 30 min: 0.556 µM
  Trep Concentration (μM) 60 min: 0.482 µM
  Trep Concentration (μM) 120 min: 0.413 µM
  Treprostinil Concentration 0 min: 0.00542 µM
  Treprostinil Concentration 120 min: 0.413 µM
  CLint, calculated (in parentheses): 0.185 mL/min/mg protein
  Half-life, calculated (in parentheses): 2.50 min
  AUC: 56.2 µmol·min/L
  Mono AUC (treprostinil formed): 56.2 µmol·min/L
  CLint: > 0.0308 mL/min/mg protein
  Half-life: < 15 min
[4]; [6]
  EC50 Fold Different from Treprostinil, DP1 Receptor: 410x*
[4]; Table 22
  DP1 Relative to Tre: 410x
[4]; Table 23
  DP1 Relative to Tre: 410x
[4]; summary of findings
  Activity at the DP1 receptor compared to treprostinil: several hundred-fold less active
[5]
  Trep Concentration 0 min: 0.336 µM
  Trep Concentration 10 min: 0.595 µM
  Trep Concentration 20 min: 0.764 µM
  Trep Concentration 30 min: 0.653 µM
  Trep Concentration 60 min: 0.699 µM
  Treprostinil Concentration 0 min: 0.336 µM
  Treprostinil Concentration 15 min: 0.595 µM
  Treprostinil Concentration 30 min: 0.764 µM
  Treprostinil Concentration 60 min: 0.653 µM
  Treprostinil Concentration 120 min: 0.699 µM
  CLint, calculated (in parentheses): 0.250 mL/min/mg protein
  Half-life, calculated (in parentheses): 5.53 min
  AUC Mono (treprostinil formed): 38.8 µmol·min/L
  CLint: > 0.139 mL/min/mg protein
  Half-life: < 10 min

## CCCCCC(CCC1C(OC(=O)OC)CC2Cc3c(cccc3OCC(=O)O)CC21)OC(=O)OC (centres unmarked) [Prodrug LXXI, treprostinil dicarbonate]
[1]
  AUC: 41.47 µmol·min/L
  Mono AUC (treprostinil formed): 41.5 µmol·min/L
[1]; hepatocytes
  CLint: > 0.0308 mL/min/mg protein
  Half-life: < 15 min
  CLint, calculated (in parentheses): 0.187 mL/min/mg protein
  Half-life, calculated (in parentheses): 2.47 min
[2]
  Activity at the EP2 receptor compared to treprostinil: inactive
[3]
  CLint, calculated (in parentheses): 0.0516 mL/min/mg protein
  Half-life, calculated (in parentheses): 8.96 min
  AUC: 26.57 µmol·min/L
  Mono AUC (treprostinil formed): 26.6 µmol·min/L
  CLint: > 0.0308 mL/min/mg protein
  Half-life: < 15 min
[4]; Table 22
  DP1 Relative to Tre: 2181x*
[4]; Table 23
  DP1 Relative to Tre: 2181x*
[5]
  CLint, calculated (in parentheses): 0.575 mL/min/mg protein
  Half-life, calculated (in parentheses): 2.41 min
  AUC Mono (treprostinil formed): 33.5 µmol·min/L
  CLint: > 0.139 mL/min/mg protein
  Half-life: < 10 min

## CCCCCC(CCC1C(O)CC2Cc3c(cccc3OCC(=O)O)CC21)OP(=O)(O)O (centres unmarked) [Prodrug VI]
[1]
  Treprostinil Concentration 15 min: 0.581 µM
  Treprostinil Concentration 120 min: 0.548 µM
  Mono AUC (treprostinil formed): 62.9 µmol·min/L
[2]
  EP2 Relative to Tre: 4x
[2]; listed as Prodrug VI repeat
  EP2 Relative to Tre: 9x
[3]
  Treprostinil Concentration 0 min: 0 µM
  Treprostinil Concentration 120 min: 0.540 µM
  Mono AUC (treprostinil formed): 48.7 µmol·min/L
[4]; Table 22
  DP1 Relative to Tre: 2x
[5]
  Treprostinil Concentration 0 min: 0.27 µM
  Treprostinil Concentration 15 min: 0.39 µM
  Treprostinil Concentration 30 min: 0.46 µM
  Treprostinil Concentration 60 min: 0.53 µM
  Treprostinil Concentration 120 min: 0.73 µM
  AUC Mono (treprostinil formed): 31.4 µmol·min/L

## CCCCCC(CCC1C(O)CC2Cc3c(cccc3OCC(=O)O)CC21)OC(C)=O (centres unmarked) [Prodrug XLIII]
[1]
  Treprostinil Concentration 15 min: 0.628 µM
  Treprostinil Concentration 120 min: 0.4 µM
  Mono AUC (treprostinil formed): 54.0 µmol·min/L
[2]
  EP2 Relative to Tre: 461x
[3]
  Treprostinil Concentration 0 min: 0.00744 µM
  Treprostinil Concentration 120 min: 0.507 µM
  Mono AUC (treprostinil formed): 62.2 µmol·min/L
[4]; Table 22
  DP1 Relative to Tre: 272x
[5]
  Treprostinil Concentration 0 min: 0.035 µM
  Treprostinil Concentration 15 min: 0.0741 µM
  Treprostinil Concentration 30 min: 0.111 µM
  Treprostinil Concentration 60 min: 0.145 µM
  Treprostinil Concentration 120 min: 0.206 µM
  AUC Mono (treprostinil formed): 8.0 µmol·min/L

From patent US12491170B2, “Stable treprostinil prodrugs” (United Therapeutics Corporation, priority 2020, dated 2025)
